Measured values reported in PubChem BioAssay (NCI).
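Tested at 5 concentrations; 48 h exposure; 96-well plates; endpoints linearly interpolated, else capped at highest concentration. Here, GI50 denotes the concentration required for 50% inhibition of growth. Definition used: TGI = concentration required for complete inhibition of growth.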

What was measured:
Test in all cases: NCI anticancer screen, dose series, 48 h
KM12 colon = test system: KM12 colon
COLO 205 colon = test system: COLO 205 colon
HCC-2998 colon = test system: HCC-2998 colon
TK-10 renal = test system: TK-10 renal
SK-MEL-2 melanoma = test system: SK-MEL-2 melanoma
EKVX NSCLC = test system: EKVX NSCLC
RXF 393 renal = test system: RXF 393 renal
SNB-19 CNS = test system: SNB-19 CNS
BT-549 breast = test system: BT-549 breast
M14 melanoma = test system: M14 melanoma
HT29 colon = test system: HT29 colon
OVCAR-3 ovarian = test system: OVCAR-3 ovarian
MDA-MB-231 breast = test system: MDA-MB-231 breast
A498 renal = test system: A498 renal
CCRF-CEM leukemia = test system: CCRF-CEM leukemia
SK-MEL-28 melanoma = test system: SK-MEL-28 melanoma
HL-60(TB) leukemia = test system: HL-60(TB) leukemia
MALME-3M melanoma = test system: MALME-3M melanoma
OVCAR-4 ovarian = test system: OVCAR-4 ovarian
IGROV1 ovarian = test system: IGROV1 ovarian
U251 CNS = test system: U251 CNS
MDA-MB-435 = test system: MDA-MB-435
SF-295 CNS = test system: SF-295 CNS
SK-MEL-5 melanoma = test system: SK-MEL-5 melanoma
K-562 leukemia = test system: K-562 leukemia
NCI-H226 lung = test system: NCI-H226 lung
786-0 renal = test system: 786-0 renal
LOX IMVI melanoma = test system: LOX IMVI melanoma
SNB-75 CNS = test system: SNB-75 CNS
UACC-62 melanoma = test system: UACC-62 melanoma
NCI-H460 lung = test system: NCI-H460 lung
MOLT-4 leukemia = test system: MOLT-4 leukemia
HCT-15 colon = test system: HCT-15 colon
A549 NSCLC = test system: A549 NSCLC
NCI/ADR-RES ovarian = test system: NCI/ADR-RES ovarian
RPMI-8226 leukemia = test system: RPMI-8226 leukemia
ACHN renal = test system: ACHN renal
SW-620 colon = test system: SW-620 colon
SF-539 CNS = test system: SF-539 CNS
SR leukemia = test system: SR leukemia
HOP-92 NSCLC = test system: HOP-92 NSCLC
SF-268 CNS = test system: SF-268 CNS
CAKI-1 renal = test system: CAKI-1 renal
DU-145 prostate = test system: DU-145 prostate
NCI-H522 lung = test system: NCI-H522 lung
UACC-257 melanoma = test system: UACC-257 melanoma
OVCAR-8 ovarian = test system: OVCAR-8 ovarian
SK-OV-3 ovarian = test system: SK-OV-3 ovarian
UO-31 renal = test system: UO-31 renal
OVCAR-5 ovarian = test system: OVCAR-5 ovarian
HOP-62 NSCLC = test system: HOP-62 NSCLC
HS 578T breast = test system: HS 578T breast
T-47D breast = test system: T-47D breast
PC-3 prostate = test system: PC-3 prostate
SN12C renal = test system: SN12C renal
MCF7 breast = test system: MCF7 breast

SMILES: COC1CCN(Cc2ccc3c(NNC(=O)c4cnccn4)nc4cc(F)ccc4n23)C1 (stereo unspecified)
- GI50 (KM12 colon): 2.14 µM
- TGI (KM12 colon): > 100 µM
- GI50 (COLO 205 colon): 0.949 µM
- TGI (COLO 205 colon): 13.9 µM
- GI50 (HCC-2998 colon): 3.63 µM
- TGI (HCC-2998 colon): 26.8 µM
- GI50 (TK-10 renal): 1.48 µM
- TGI (TK-10 renal): 58.4 µM
- GI50 (SK-MEL-2 melanoma): 3.83 µM
- TGI (SK-MEL-2 melanoma): 59.4 µM
- GI50 (EKVX NSCLC): 1.08 µM
- TGI (EKVX NSCLC): 23 µM
- GI50 (RXF 393 renal): 1.65 µM
- TGI (RXF 393 renal): 5.19 µM
- GI50 (SNB-19 CNS): 2.05 µM
- TGI (SNB-19 CNS): 28.4 µM
- GI50 (BT-549 breast): 2.32 µM
- TGI (BT-549 breast): > 100 µM
- GI50 (M14 melanoma): 1.37 µM
- TGI (M14 melanoma): 13.1 µM
- GI50 (HT29 colon): 0.552 µM
- TGI (HT29 colon): 14.8 µM
- GI50 (OVCAR-3 ovarian): 2.02 µM
- TGI (OVCAR-3 ovarian): 49.8 µM
- GI50 (MDA-MB-231 breast): 1.8 µM
- TGI (MDA-MB-231 breast): 17.3 µM
- GI50 (A498 renal): 89.2 µM
- TGI (A498 renal): > 100 µM
- GI50 (CCRF-CEM leukemia): 0.468 µM
- TGI (CCRF-CEM leukemia): > 100 µM
- GI50 (SK-MEL-28 melanoma): 3.37 µM
- TGI (SK-MEL-28 melanoma): > 100 µM
- GI50 (HL-60(TB) leukemia): 1.03 µM
- GI50 (MALME-3M melanoma): 3.38 µM
- TGI (MALME-3M melanoma): 18.9 µM
- GI50 (OVCAR-4 ovarian): 0.667 µM
- TGI (OVCAR-4 ovarian): 19.1 µM
- GI50 (IGROV1 ovarian): 1.13 µM
- TGI (IGROV1 ovarian): 39.1 µM
- GI50 (U251 CNS): 0.601 µM
- TGI (U251 CNS): 10.9 µM
- GI50 (MDA-MB-435): 2.09 µM
- TGI (MDA-MB-435): 18.7 µM
- GI50 (SF-295 CNS): 0.744 µM
- TGI (SF-295 CNS): 14.6 µM
- GI50 (SK-MEL-5 melanoma): 2.76 µM
- TGI (SK-MEL-5 melanoma): 23.6 µM
- GI50 (K-562 leukemia): 0.53 µM
- TGI (K-562 leukemia): > 100 µM
- GI50 (NCI-H226 lung): 1.7 µM
- TGI (NCI-H226 lung): 18.2 µM
- GI50 (786-0 renal): 1.93 µM
- TGI (786-0 renal): 20.3 µM
- GI50 (LOX IMVI melanoma): 1.13 µM
- TGI (LOX IMVI melanoma): 2.87 µM
- GI50 (SNB-75 CNS): 0.538 µM
- TGI (SNB-75 CNS): 13 µM
- GI50 (UACC-62 melanoma): 2.3 µM
- TGI (UACC-62 melanoma): 13.1 µM
- GI50 (NCI-H460 lung): 0.453 µM
- TGI (NCI-H460 lung): 13.6 µM
- GI50 (MOLT-4 leukemia): 0.699 µM
- TGI (MOLT-4 leukemia): 41.5 µM
- GI50 (HCT-15 colon): 0.355 µM
- TGI (HCT-15 colon): 16.3 µM
- GI50 (A549 NSCLC): 1.24 µM
- TGI (A549 NSCLC): 16 µM
- GI50 (NCI/ADR-RES ovarian): 0.505 µM
- TGI (NCI/ADR-RES ovarian): 16.6 µM
- GI50 (RPMI-8226 leukemia): 1.76 µM
- TGI (RPMI-8226 leukemia): 15.6 µM
- GI50 (ACHN renal): 0.647 µM
- TGI (ACHN renal): 31.8 µM
- GI50 (SW-620 colon): 0.821 µM
- TGI (SW-620 colon): 20.3 µM
- GI50 (SF-539 CNS): 1.32 µM
- TGI (SF-539 CNS): 12.1 µM
- GI50 (SR leukemia): 0.722 µM
- TGI (SR leukemia): 20.5 µM
- GI50 (HOP-92 NSCLC): 1.77 µM
- TGI (HOP-92 NSCLC): 30 µM
- GI50 (SF-268 CNS): 1.99 µM
- TGI (SF-268 CNS): > 100 µM
- GI50 (CAKI-1 renal): 0.933 µM
- TGI (CAKI-1 renal): 19.7 µM
- GI50 (DU-145 prostate): 2.68 µM
- TGI (DU-145 prostate): > 100 µM
- GI50 (NCI-H522 lung): 1.64 µM
- TGI (NCI-H522 lung): 5.85 µM
- GI50 (UACC-257 melanoma): 2.23 µM
- TGI (UACC-257 melanoma): 6.93 µM
- GI50 (OVCAR-8 ovarian): 0.846 µM
- TGI (OVCAR-8 ovarian): 15.1 µM
- GI50 (SK-OV-3 ovarian): 2.35 µM
- TGI (SK-OV-3 ovarian): 56 µM
- GI50 (UO-31 renal): 0.26 µM
- TGI (UO-31 renal): 14.6 µM
- GI50 (OVCAR-5 ovarian): 2.71 µM
- TGI (OVCAR-5 ovarian): 97.7 µM
- GI50 (HOP-62 NSCLC): 0.747 µM
- TGI (HOP-62 NSCLC): 14.4 µM
- GI50 (HS 578T breast): 3.44 µM
- TGI (HS 578T breast): > 100 µM
- GI50 (T-47D breast): 1.06 µM
- TGI (T-47D breast): 64.5 µM
- GI50 (PC-3 prostate): 1.45 µM
- TGI (PC-3 prostate): 30.2 µM
- GI50 (SN12C renal): 1.82 µM
- TGI (SN12C renal): 37 µM
- GI50 (MCF7 breast): 0.531 µM
- TGI (MCF7 breast): 12.3 µM
